Like-named read-outs stand apart in the source and are kept apart here.
What was measured:
[1] = test system: human beta-coronavirus OC43; assay: OC43 coronavirus antiviral assay in HeLa cells (cytopathic effect, cell-titer-glo); assay type: cell-based; settings: Betacoronavirus 1, OC43, HeLa, 144 h, 6 days at 33° C.
[2] = test system: SARS-CoV-2-GHB-03021/2020; assay type: cell-based; settings: read-out: VeroE6 + CP (EC50)
[3] = test system: B.1.1.7 lineage SARS-CoV-2; assay: microbe, parasite or virus in culture; assay type: cell-based; settings: Severe acute respiratory syndrome coronavirus 2, 96 h, read-out: A549-dual_ACE2_TMPRSS2 (EC50)
[4] = biological target: T1, HRV3C (Human rhinovirus 14, UniProt P03303); assay: biochemical; design: species or system HRV; settings: HRV3C, 30 mins preincubation, SAMDI-MS
T1 construct: 3CLpro and HRV3C was added using a Multidrop Combi

[5] = biological target: T2, human cathepsin L (Homo sapiens, UniProt P07711); assay: Cathepsin L assay (Z-FR-AMC fluorescence); assay type: biochemical; settings: 10 pM human cathepsin L, 30 mins preincubation, Z-FR-AMC 2 μM
T2 construct: purchased R&D Systems
Procedure, shortened: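 IC50 values were taken from four-parameter fits of fluorescence read at 355/460 nm every 2 minutes for 30 minutes. The reaction started when 2 μM Z-FR-AMC was added. Before that, 10 pM human cathepsin L had been preincubated with inhibitor for 30 minutes.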

[6] = biological target: T3, SARS-Cov-2 3CLpro (Severe acute respiratory syndrome coronavirus 2, UniProt P0DTD1); assay: biochemical; settings: 3CLpro, 30 mins preincubation, SAMDI-MS; read-out: SARS-Cov-2 IC50 (class)
T3 construct: 3CLpro and HRV3C was added using a Multidrop Combi

[7] = […], numeric bounds given instead of class symbols

T1 sequence (P03303 1538-1719): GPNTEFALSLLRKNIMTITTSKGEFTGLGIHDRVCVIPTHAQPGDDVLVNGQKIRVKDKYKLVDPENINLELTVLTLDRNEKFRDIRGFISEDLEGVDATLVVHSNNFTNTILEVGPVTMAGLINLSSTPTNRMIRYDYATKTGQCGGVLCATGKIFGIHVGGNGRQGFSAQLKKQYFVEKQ
T2 sequence (P07711 114-333): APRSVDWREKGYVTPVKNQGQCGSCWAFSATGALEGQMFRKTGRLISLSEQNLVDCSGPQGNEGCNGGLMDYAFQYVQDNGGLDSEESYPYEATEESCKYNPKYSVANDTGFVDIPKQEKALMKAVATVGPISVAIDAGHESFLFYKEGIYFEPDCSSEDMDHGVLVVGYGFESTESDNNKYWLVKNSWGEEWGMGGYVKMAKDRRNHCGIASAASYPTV

O=C(NC1CC1)C(=O)C(C[C@@H]1CCNC1=O)NC(=O)[C@@H]1[C@@H]2[C@H](CN1C(=O)c1nc3c(Cl)ccc(Cl)c3[nH]1)[C@@H]1C=C[C@H]2C1 (stereo partly drawn) [Compound 45, (1S,3aR,4S,7R,7aS)—N-(4-(cyclopropylamino)-3,4-dioxo-1-((S)-2-oxopyrrolidin-3-yl)butan-2-yl)-2-(4,7-dichloro-1H-benzo[d]imidazole-2-carbonyl)-2,3,3a,4,7,7a-hexahydro-1H-4,7-methanoisoindole-1-carboxamide]
EC50 ([1]; read-out: EC50 (class)): 1000 to 10000 nM | EC50 [2]: 1000 to 10000 nM | EC50 [3]: 1000 to 10000 nM | IC50 ([4]; read-out: HRV IC50 (class)): 2000 to 20000 nM | IC50 [5]: ≥ 10000 nM | IC50 [6]: 20 to 200 nM

O=C(NC1CC1)C(=O)C(C[C@@H]1CCNC1=O)NC(=O)[C@@H]1[C@@H]2[C@H](CN1C(=O)c1cc3c(Cl)cc(Cl)cc3[nH]1)[C@@H]1C=C[C@H]2C1 (stereo partly drawn) [Compound 46, (1S,3aR,4S,7R,7aS)—N-(4-(cyclopropylamino)-3,4-dioxo-1-((S)-2-oxopyrrolidin-3-yl)butan-2-yl)-2-(4,6-dichloro-1H-indole-2-carbonyl)-2,3,3a,4,7,7a-hexahydro-1H-4,7-methanoisoindole-1-carboxamide]
EC50 ([1]; read-out: EC50 (class)): 100 to 1000 nM | EC50 [2]: 100 to 1000 nM | EC50 [3]: 100 to 1000 nM | IC50 ([4]; read-out: HRV IC50 (class)): 200 to 2000 nM | IC50 [5]: ≥ 10000 nM | IC50 [6]: < 20 nM

CN1CC(C[C@@H](C#N)NC(=O)[C@@H]2[C@@H]3[C@H](CN2C(=O)[C@@H](NC(=O)C(F)(F)F)C(C)(C)C)[C@@H]2C=C[C@H]3C2)C(=O)N1 (stereo partly drawn) [Compound 49, (1S,3aR,4S,7R,7aS)-N-((S)-1-cyano-2-(1-methyl-3-oxopyrazolidin-4-yl)ethyl)-2-((S)-3,3-dimethyl-2-(2,2,2-trifluoroacetamido)butanoyl)-2,3,3a,4,7,7a-hexahydro-1H-4,7-methanoisoindole-1-carboxamide]
EC50 ([1]; read-out: EC50 (class)): 100 to 1000 nM | EC50 [2]: 100 to 1000 nM | EC50 [3]: 100 to 1000 nM | IC50 ([4]; read-out: HRV IC50 (bound)): > 10000 nM | IC50 [5]: ≥ 10000 nM | IC50 [6]: < 20 nM

[2H]C1([2H])C[C@@H](C[C@@H](C#N)NC(=O)[C@@H]2[C@@H]3[C@H](CN2C(=O)[C@@H](NC(=O)C(F)(F)F)C(C)(C)C)[C@@H]2C=C[C@H]3C2)C(=O)N1 [Compound 50, (1S,3aR,4S,7R,7aS)-N-((S)-1-cyano-2-((S)-2-oxopyrrolidin-3-yl-5,5-d2)ethyl)-2-((S)-3,3-dimethyl-2-(2,2,2-trifluoroacetamido)butanoyl)-2,3,3a,4,7,7a-hexahydro-1H-4,7-methanoisoindole-1-carboxamide]
EC50 ([1]; read-out: EC50 (class)): < 100 nM | EC50 [2]: < 100 nM | EC50 [3]: < 100 nM | IC50 ([4]; read-out: HRV IC50 (bound)): > 10000 nM | IC50 [5]: ≥ 10000 nM | IC50 [6]: < 20 nM

CC(C)(C)[C@H](OC1CC1)C(=O)N1C[C@H]2[C@@H]([C@H]1C(=O)N[C@H](C#N)C[C@@H]1CCNC1=O)[C@H]1C=C[C@@H]2C1 [Compound 54]
EC50 ([1]; read-out: EC50 (bound)): > 10000 nM | EC50 [2]: 1000 to 10000 nM | EC50 [3, 7]: > 10000 nM | IC50 ([4]; read-out: HRV IC50 (bound)): > 10000 nM | IC50 [5]: ≥ 10000 nM | IC50 [6]: 200 to 2000 nM

CC(C)(C)[C@H](OCC1CC1)C(=O)N1C[C@H]2[C@@H]([C@H]1C(=O)N[C@H](C#N)C[C@@H]1CCNC1=O)[C@H]1C=C[C@@H]2C1 [Compound 56]
EC50 ([1]; read-out: EC50 (bound)): > 10000 nM | EC50 [2]: 1000 to 10000 nM | EC50 [3]: 1000 to 10000 nM | IC50 ([4]; read-out: HRV IC50 (bound)): > 10000 nM | IC50 [5]: ≥ 10000 nM | IC50 [6]: 200 to 2000 nM

CC(C)(C)[C@@H](C(=O)N1C[C@H]2[C@@H]([C@H]1C(=O)N[C@H](C#N)C[C@@H]1CCNC1=O)[C@H]1C=C[C@@H]2C1)N1CCCC1=O [Compound 70]
EC50 ([1]; read-out: EC50 (bound)): > 10000 nM | EC50 [2]: 10000 to 50000 nM | EC50 [3, 7]: > 10000 nM | IC50 ([4]; read-out: HRV IC50 (bound)): > 10000 nM | IC50 [5]: ≥ 10000 nM | IC50 [6]: 2000 to 20000 nM

CC(C)(C)[C@H](NC(=O)C(F)(F)F)C(=O)N1C[C@H]2[C@@H]([C@H]1C(=O)N[C@H](C#N)C[C@@H]1CCNC1=O)[C@H]1C=C[C@@H]2C1 [Example 1, (1S,3aR,4S,7R,7aS)-N-((S)-1-cyano-2-((S)-2-oxopyrrolidin-3-yl)ethyl)-2-((S)-3,3-dimethyl-2-(2,2,2-trifluoroacetamido)butanoyl)-2,3,3a,4,7,7a-hexahydro-1H-4,7-methanoisoindole-1-carboxamide]
EC50 ([1]; read-out: EC50 (class)): < 100 nM | EC50 [2]: < 100 nM | EC50 [3]: < 100 nM | IC50 ([4]; read-out: HRV IC50 (bound)): > 10000 nM | IC50 [5]: ≥ 10000 nM | IC50 [6]: < 20 nM

CC(C)(C)[C@H](NC(=O)C(F)(F)F)C(=O)N1C[C@@H]2[C@H]3C[C@H]([C@@H]4C[C@@H]43)[C@@H]2[C@H]1C(=O)N[C@H](C#N)C[C@@H]1CCNC1=O [Example 2, (1R,2S,3S,6R,7S,8S,10R)—N-[(1S)-1-cyano-2-[(3S)-2-oxopyrrolidin-3-yl]ethyl]-4-[(2S)-3,3-dimethyl-2-(2,2,2-trifluoroacetamido)butanoyl]-4-azatetracyclo[5.3.1.0^{2,6}0.0^{8,10}]undecane-3-carboxamide]
EC50 ([1]; read-out: EC50 (class)): 100 to 1000 nM | EC50 [2]: < 100 nM | EC50 [3]: < 100 nM | IC50 ([4]; read-out: HRV IC50 (bound)): > 10000 nM | IC50 [5]: ≥ 10000 nM | IC50 [6]: 20 to 200 nM

CC(C)(C)[C@H](NC(=O)C(F)(F)F)C(=O)N1C[C@H]2[C@@H]([C@H]1C(=O)N[C@H](C#N)CC1Cn3nccc3NC1=O)[C@H]1C=C[C@@H]2C1 (stereo partly drawn) [Example 9, (1S,3aR,4S,7R,7aS)—N-((1S)-1-cyano-2-(5-oxo-4,5,6,7-tetrahydropyrazolo[1,5-a]pyrimidin-6-yl)ethyl)-2-((S)-3,3-dimethyl-2-(2,2,2-trifluoroacetamido)butanoyl)-2,3,3a,4,7,7a-hexahydro-1H-4,7-methanoisoindole-1-carboxamide]
EC50 ([1]; read-out: EC50 (class)): < 100 nM | EC50 [2]: < 100 nM | EC50 [3]: 100 to 1000 nM | IC50 ([4]; read-out: HRV IC50 (bound)): > 10000 nM | IC50 [5]: ≥ 10000 nM | IC50 [6]: < 20 nM

O=C(NC1CC1)C(=O)C(C[C@@H]1CCNC1=O)NC(=O)[C@@H]1[C@@H]2[C@H](CN1C(=O)[C@@H]1C[C@]13CCCc1ccccc13)[C@@H]1C=C[C@H]2C1 (stereo partly drawn) [Example 11, (1S,3aR,4S,7R,7aS)—N-(4-(cyclopropylamino)-3,4-dioxo-1-((S)-2-oxopyrrolidin-3-yl)butan-2-yl)-2-((1R,2R)-3′,4′-dihydro-2′H-spiro[cyclopropane-1,1′-naphthalene]-2-carbonyl)-2,3,3a,4,7,7a-hexahydro-1H-4,7-methanoisoindole-1-carboxamide]
EC50 ([1]; read-out: EC50 (class)): 100 to 1000 nM | EC50 [2]: 100 to 1000 nM | EC50 [3]: 100 to 1000 nM | IC50 ([4]; read-out: HRV IC50 (class)): 200 to 2000 nM | IC50 [5]: ≥ 10000 nM | IC50 [6]: < 20 nM

CC(C)(C)[C@H](NC(=O)C(F)(F)F)C(=O)N1C[C@@H]2[C@@H]3CC[C@@H](C3)[C@@H]2[C@H]1C(=O)N[C@H](C#N)C[C@@H]1CCNC1=O [Example 12, (1S,3aR,4R,7S,7aS)-N-((S)-1-cyano-2-((S)-2-oxopyrrolidin-3-yl)ethyl)-2-((S)-3,3-dimethyl-2-(2,2,2-trifluoroacetamido)butanoyl)octahydro-1H-4,7-methanoisoindole-1-carboxamide]
EC50 ([1]; read-out: EC50 (class)): < 100 nM | EC50 [2]: < 100 nM | EC50 [3]: < 100 nM | IC50 ([4]; read-out: HRV IC50 (bound)): > 10000 nM | IC50 [5]: ≥ 10000 nM | IC50 [6]: < 20 nM

C#CC(C)(C)[C@H](NC(=O)C(F)(F)F)C(=O)N1C[C@@H]2[C@@H]3CC[C@@H](C3)[C@@H]2[C@H]1C(=O)N[C@H](C#N)C[C@@H]1CCNC1=O [Example 13, (1S,2S,3S,6R,7R)—N-[(1S)-1-cyano-2-[(3S)-2-oxopyrrolidin-3-yl]ethyl]-4-[(2S)-3,3-dimethyl-2-(2,2,2-trifluoroacetamido)pent-4-ynoyl]-4-azatricyclo[5.2.1.0^{2,6}]decane-3-carboxamide]
EC50 ([1]; read-out: EC50 (class)): 100 to 1000 nM | EC50 [2]: < 100 nM | EC50 [3]: < 100 nM | IC50 ([4]; read-out: HRV IC50 (bound)): > 10000 nM | IC50 [5]: ≥ 10000 nM | IC50 [6]: 20 to 200 nM

CC(C)(C)[C@H](NC(=O)C(F)(F)F)C(=O)N1C[C@H]2[C@@H]([C@H]1C(=O)N[C@H](C#N)C[C@@H]1CC3(CC3)NC1=O)[C@H]1C=C[C@@H]2C1 [Example 14, (1S,3aR,4S,7R,7aS)-N-((S)-1-cyano-2-((R)-5-oxo-4-azaspiro[2.4]heptan-6-yl)ethyl)-2-((S)-3,3-dimethyl-2-(2,2,2-trifluoroacetamido)butanoyl)-2,3,3a,4,7,7a-hexahydro-1H-4,7-methanoisoindole-1-carboxamide]
EC50 ([1]; read-out: EC50 (class)): < 100 nM | EC50 [2]: < 100 nM | EC50 [3]: < 100 nM | IC50 ([4]; read-out: HRV IC50 (bound)): > 10000 nM | IC50 [5]: ≥ 10000 nM | IC50 [6]: < 20 nM

CC(C)(C)[C@H](NC(=O)C(F)(F)F)C(=O)N1C[C@H]2[C@@H]([C@H]1C(=O)N[C@H](C#N)C[C@@H]1CCCNC1=O)[C@H]1C=C[C@@H]2C1 [Example 16, (1S,3aR,4S,7R,7aS)-N-((S)-1-cyano-2-((S)-2-oxopiperidin-3-yl)ethyl)-2-((S)-3,3-dimethyl-2-(2,2,2-trifluoroacetamido)butanoyl)-2,3,3a,4,7,7a-hexahydro-1H-4,7-methanoisoindole-1-carboxamide]
EC50 ([1]; read-out: EC50 (class)): < 100 nM | EC50 [2]: < 100 nM | EC50 [3]: < 100 nM | IC50 ([4]; read-out: HRV IC50 (bound)): > 10000 nM | IC50 [5]: ≥ 10000 nM | IC50 [6]: < 20 nM

— patent publication US12252481B2, “Anti-viral compounds” (Aligos Therapeutics, Inc., priority 2021, dated 2025)
